In patent US20080248077A1, “Formulation” (ASTRAZENECA AB, priority 2005, published 2008) one finds solubility data, which are given here for one molecule.

This data set in a line: water solubility of anastrozole. It counts as physicochemical.

Converted amounts (≈) assume the structure as drawn. Read-outs that look alike come from different tables or passages of the source.

Take `CC(C)(C#N)c1cc(Cn2cncn2)cc(C(C)(C)C#N)c1` [anastrozole, Anastrozole]: the solubility – broadly, the dissolved amount per volume that the medium holds – is, setting by setting: (at 25° C., read-out: water solubility) 530 µg/mL (≈ 1810 µM); (read-out: aqueous solubility) 530 µg/mL (≈ 1810 µM).
